Experimental data taken from patent publication US7074789B2, “Kinase inhibitors” (Amgen Inc., priority 1999, dated 2006).
Read-outs that look alike come from different tables or passages of the source.

Key:
Type in all cases: biochemical
Lck = target: T1, Lck (Homo sapiens, UniProt P06239); experiment: Kinase inhibition assay (33P transfer), Lck
T1 construct: Kinases are expressed as either kinase domains or full length constructs; made in house
Procedure, shortened: (§1)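 Radiometric readout: 33P incorporated into surface-bound poly(Glu,Tyr) 4:1 or poly(Arg,Ser) 3:1 is counted by liquid scintillation after a 0.5% phosphoric acid wash. Enzymes were GST or polyHis fusions (kinase domain or full length) from E. coli or High Five insect cells.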

c-Met = target: T2, c-Met (Homo sapiens, UniProt P08581); experiment: Kinase inhibition assay (33P transfer), c-Met; details: Table 2, class symbols A-E; read-out: Met-1
T2 construct: Kinases are expressed as either kinase domains or full length constructs; made in house
Procedure, shortened: (§2)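 Radiometric format: recombinant tagged kinase (catalytic domain or whole protein, sometimes combined with regulatory polypeptides) phosphorylates immobilised poly(Glu,Tyr) 4:1 or poly(Arg,Ser) 3:1 using [33P]ATP. Wells are washed in 0.5% phosphoric acid, then counted. IC50 is taken where substrate labelling falls by half.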

Kdr = target: T3, Kdr (Homo sapiens, UniProt P35968); experiment: Kinase inhibition assay (33P transfer), Kdr; details: Table 3, class symbols; read-out: KDR-1
T3 construct: Kinases are expressed as either kinase domains or full length constructs; made in house
T3 sequence (P35968 20-1356, species assumed): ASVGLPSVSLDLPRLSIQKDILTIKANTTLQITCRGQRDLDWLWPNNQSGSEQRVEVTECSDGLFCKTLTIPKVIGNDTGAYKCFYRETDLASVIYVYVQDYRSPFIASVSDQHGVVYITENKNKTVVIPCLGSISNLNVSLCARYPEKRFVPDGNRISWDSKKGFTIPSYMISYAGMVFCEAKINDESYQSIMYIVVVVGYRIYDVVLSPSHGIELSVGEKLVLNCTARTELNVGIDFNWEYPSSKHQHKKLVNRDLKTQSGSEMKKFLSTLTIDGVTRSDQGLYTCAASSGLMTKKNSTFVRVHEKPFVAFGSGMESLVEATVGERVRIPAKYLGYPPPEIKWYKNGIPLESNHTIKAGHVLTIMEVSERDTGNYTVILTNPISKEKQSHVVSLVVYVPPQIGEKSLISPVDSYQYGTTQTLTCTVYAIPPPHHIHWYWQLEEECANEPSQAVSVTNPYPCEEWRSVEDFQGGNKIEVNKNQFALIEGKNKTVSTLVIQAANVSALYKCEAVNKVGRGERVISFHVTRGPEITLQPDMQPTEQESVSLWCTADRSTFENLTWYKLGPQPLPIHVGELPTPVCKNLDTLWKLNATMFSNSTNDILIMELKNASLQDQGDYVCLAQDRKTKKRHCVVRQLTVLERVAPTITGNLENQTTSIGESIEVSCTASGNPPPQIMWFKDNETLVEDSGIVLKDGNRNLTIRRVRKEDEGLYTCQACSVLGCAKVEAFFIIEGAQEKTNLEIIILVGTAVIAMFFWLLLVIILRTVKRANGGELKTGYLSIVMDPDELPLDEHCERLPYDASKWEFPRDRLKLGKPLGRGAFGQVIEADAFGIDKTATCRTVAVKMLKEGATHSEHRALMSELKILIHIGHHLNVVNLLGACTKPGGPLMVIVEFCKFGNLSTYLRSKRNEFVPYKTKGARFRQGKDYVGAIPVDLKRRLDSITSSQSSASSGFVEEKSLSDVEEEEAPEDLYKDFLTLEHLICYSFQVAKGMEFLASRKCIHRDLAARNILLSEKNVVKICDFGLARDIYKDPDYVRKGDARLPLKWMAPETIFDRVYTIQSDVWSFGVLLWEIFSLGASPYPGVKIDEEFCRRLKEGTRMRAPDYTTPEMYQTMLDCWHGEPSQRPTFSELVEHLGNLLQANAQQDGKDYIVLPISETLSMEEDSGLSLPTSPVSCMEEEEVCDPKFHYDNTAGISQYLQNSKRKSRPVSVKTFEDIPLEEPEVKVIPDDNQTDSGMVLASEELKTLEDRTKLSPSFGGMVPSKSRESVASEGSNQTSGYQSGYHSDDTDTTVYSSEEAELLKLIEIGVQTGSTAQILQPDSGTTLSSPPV
Procedure, shortened: as §1

Itk = target: T4, Itk (Homo sapiens, UniProt Q08881); experiment: Kinase inhibition assay (33P transfer), Itk; details: Table 3, class symbols; read-out: Itk-1
T4 construct: Kinases are expressed as either kinase domains or full length constructs; made in house
T4 sequence (Q08881 1-620): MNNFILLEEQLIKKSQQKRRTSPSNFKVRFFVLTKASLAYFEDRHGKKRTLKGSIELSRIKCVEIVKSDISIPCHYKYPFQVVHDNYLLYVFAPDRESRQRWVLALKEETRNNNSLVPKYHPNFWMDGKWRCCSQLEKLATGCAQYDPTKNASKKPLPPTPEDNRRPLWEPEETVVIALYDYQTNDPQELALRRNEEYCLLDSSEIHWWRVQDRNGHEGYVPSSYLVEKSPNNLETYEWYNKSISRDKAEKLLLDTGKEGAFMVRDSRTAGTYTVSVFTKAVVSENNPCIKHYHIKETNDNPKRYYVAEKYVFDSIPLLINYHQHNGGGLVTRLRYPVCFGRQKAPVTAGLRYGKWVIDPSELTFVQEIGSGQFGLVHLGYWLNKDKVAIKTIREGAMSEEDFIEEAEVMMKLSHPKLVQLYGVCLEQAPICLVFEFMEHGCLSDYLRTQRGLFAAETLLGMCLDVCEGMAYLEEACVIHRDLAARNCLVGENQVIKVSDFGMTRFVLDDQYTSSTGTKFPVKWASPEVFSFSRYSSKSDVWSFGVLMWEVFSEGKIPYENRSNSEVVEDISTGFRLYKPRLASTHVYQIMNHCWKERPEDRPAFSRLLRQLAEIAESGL
Procedure, shortened: as §2

AKT = target: T5, AKT (Homo sapiens, UniProt Q9Y243); experiment: Kinase inhibition assay (33P transfer), AKT
T5 construct: Kinases are expressed as either kinase domains or full length constructs; made in house
Procedure, shortened: as §1

Zap-70 = target: T6, Zap-70 (Homo sapiens, UniProt P43403); experiment: Kinase inhibition assay (33P transfer), Zap-70
T6 construct: Kinases are expressed as either kinase domains or full length constructs; made in house
T6 sequence (P43403 1-619): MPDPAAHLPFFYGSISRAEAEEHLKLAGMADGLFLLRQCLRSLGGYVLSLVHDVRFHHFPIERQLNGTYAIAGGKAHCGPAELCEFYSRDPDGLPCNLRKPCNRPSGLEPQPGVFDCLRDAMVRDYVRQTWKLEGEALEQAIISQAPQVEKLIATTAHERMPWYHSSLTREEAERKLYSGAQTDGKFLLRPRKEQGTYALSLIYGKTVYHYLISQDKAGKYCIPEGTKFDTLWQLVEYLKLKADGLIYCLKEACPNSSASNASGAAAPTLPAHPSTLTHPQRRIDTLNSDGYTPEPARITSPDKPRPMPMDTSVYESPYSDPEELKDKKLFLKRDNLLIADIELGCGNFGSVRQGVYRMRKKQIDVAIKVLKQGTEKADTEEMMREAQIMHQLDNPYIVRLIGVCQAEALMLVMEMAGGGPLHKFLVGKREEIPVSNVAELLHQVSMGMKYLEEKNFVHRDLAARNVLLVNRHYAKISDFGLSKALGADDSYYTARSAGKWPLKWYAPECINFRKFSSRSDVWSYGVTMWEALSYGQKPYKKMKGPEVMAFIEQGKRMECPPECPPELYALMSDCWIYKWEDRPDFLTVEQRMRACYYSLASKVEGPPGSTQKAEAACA
Procedure, shortened: as §1

IGFR-1 = target: T7, IGFR-1 (Homo sapiens, UniProt P08069); experiment: Kinase inhibition assay (33P transfer), IGFR-1; details: Table 2, class symbols A-E
T7 construct: Kinases are expressed as either kinase domains or full length constructs; made in house
T7 sequence (P08069 31-1367): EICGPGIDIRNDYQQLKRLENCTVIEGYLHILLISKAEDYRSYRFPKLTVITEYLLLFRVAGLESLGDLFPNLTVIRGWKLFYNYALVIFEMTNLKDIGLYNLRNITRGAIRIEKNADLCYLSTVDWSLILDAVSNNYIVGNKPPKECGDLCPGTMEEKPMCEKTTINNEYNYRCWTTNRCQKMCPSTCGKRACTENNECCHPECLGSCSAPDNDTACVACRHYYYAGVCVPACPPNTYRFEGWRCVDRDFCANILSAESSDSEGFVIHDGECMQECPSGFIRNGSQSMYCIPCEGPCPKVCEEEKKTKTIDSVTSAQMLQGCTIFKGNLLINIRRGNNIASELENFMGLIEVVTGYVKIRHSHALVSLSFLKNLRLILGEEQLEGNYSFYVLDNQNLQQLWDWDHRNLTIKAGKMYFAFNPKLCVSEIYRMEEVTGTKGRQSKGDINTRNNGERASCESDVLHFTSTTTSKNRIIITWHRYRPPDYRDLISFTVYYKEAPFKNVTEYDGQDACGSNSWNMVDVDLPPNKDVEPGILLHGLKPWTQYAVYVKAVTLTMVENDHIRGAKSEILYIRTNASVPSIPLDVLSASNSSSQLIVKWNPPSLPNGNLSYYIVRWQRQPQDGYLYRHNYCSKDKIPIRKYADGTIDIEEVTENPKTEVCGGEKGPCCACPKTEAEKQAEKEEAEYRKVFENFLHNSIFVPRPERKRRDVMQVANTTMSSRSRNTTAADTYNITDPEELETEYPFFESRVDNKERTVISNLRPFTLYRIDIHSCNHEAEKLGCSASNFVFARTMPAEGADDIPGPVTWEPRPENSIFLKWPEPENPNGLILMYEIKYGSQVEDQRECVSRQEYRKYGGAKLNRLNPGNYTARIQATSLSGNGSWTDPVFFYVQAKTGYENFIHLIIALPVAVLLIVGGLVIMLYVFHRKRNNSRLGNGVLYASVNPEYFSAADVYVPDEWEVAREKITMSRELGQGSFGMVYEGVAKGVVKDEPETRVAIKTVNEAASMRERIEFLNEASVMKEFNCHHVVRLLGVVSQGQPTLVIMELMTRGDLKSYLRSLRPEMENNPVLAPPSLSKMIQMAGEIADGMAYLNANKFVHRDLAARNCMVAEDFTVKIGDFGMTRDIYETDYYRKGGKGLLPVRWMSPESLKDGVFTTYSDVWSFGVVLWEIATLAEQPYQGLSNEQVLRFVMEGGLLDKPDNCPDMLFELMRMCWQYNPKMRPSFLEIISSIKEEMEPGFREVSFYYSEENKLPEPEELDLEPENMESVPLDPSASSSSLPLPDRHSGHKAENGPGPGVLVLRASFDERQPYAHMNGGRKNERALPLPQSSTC

ErbB2 = target: T8, ErbB2 (Homo sapiens, UniProt P04626); experiment: Kinase inhibition assay (33P transfer), ErbB2; details: read-out: ErbB2-2
T8 construct: Kinases are expressed as either kinase domains or full length constructs; made in house
T8 sequence (P04626 23-1255, species assumed): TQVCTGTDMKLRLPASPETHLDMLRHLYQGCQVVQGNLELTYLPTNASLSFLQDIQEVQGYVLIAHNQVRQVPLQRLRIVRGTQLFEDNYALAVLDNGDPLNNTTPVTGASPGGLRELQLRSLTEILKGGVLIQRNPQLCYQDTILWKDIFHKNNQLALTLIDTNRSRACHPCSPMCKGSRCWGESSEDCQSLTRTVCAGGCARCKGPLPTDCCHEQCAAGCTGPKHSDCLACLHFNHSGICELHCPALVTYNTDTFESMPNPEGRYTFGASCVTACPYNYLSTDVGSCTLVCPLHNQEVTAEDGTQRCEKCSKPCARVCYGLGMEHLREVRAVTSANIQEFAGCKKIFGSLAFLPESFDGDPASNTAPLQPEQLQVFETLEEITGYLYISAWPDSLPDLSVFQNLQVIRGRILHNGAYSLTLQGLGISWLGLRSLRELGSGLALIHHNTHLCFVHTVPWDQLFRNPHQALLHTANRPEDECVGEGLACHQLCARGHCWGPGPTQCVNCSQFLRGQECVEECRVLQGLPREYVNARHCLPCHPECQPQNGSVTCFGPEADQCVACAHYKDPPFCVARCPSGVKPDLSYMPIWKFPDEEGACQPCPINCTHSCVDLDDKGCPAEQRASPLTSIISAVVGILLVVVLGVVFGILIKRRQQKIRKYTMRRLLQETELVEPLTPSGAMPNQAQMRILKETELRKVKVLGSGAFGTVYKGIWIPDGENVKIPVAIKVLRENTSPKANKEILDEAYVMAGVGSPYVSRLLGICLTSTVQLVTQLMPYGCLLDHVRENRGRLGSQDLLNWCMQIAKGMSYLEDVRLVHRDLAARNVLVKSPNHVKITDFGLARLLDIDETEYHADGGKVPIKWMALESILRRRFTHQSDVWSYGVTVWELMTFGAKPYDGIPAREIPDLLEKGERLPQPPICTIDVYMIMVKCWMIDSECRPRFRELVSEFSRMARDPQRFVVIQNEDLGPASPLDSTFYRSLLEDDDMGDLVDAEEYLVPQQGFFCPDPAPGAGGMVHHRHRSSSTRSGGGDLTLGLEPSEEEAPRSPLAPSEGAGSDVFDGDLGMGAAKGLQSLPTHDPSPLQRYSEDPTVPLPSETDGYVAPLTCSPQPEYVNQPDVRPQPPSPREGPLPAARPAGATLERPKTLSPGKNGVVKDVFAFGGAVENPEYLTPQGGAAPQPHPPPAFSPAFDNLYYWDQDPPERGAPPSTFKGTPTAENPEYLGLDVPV
Procedure, shortened: as §2

EGFR = target: T9, EGFR (Homo sapiens, UniProt P00533); experiment: Kinase inhibition assay (33P transfer), EGFR; details: Table 2, class symbols A-E; read-out: EGFR-1
T9 construct: Kinases are expressed as either kinase domains or full length constructs; made in house
T9 sequence (P00533 25-1210, species assumed): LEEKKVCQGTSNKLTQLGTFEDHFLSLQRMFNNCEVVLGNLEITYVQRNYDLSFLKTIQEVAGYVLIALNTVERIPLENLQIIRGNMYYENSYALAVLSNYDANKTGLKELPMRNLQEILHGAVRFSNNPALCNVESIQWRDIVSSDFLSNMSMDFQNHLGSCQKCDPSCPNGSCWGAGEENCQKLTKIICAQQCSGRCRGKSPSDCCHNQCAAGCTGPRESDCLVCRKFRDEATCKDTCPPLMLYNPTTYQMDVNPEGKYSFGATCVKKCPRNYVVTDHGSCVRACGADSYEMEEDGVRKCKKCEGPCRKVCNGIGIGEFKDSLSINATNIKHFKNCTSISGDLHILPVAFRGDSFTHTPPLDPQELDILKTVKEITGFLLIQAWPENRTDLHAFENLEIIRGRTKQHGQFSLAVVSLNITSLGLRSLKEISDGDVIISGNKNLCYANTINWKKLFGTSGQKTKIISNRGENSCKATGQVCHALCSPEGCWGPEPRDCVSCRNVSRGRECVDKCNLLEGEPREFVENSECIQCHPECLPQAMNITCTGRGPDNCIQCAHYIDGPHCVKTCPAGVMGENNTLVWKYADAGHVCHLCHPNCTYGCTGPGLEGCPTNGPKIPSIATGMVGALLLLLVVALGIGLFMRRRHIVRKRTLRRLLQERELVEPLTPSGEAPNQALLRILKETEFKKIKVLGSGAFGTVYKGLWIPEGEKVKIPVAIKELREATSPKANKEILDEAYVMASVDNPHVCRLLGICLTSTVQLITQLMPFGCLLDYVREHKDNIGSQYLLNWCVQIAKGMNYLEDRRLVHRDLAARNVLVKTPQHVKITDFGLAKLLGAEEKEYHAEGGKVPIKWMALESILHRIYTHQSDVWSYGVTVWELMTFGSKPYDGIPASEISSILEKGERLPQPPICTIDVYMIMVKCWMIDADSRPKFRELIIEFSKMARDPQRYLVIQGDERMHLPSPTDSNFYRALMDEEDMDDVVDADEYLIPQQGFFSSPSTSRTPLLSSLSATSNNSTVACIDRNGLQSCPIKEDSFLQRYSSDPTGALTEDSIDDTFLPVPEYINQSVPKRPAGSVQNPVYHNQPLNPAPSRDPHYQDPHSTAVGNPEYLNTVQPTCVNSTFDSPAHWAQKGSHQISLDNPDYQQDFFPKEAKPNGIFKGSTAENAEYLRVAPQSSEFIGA
Procedure, shortened: as §2

[1] = Table 3, class symbols, read-out: Lck-1
[2] = Table 2, class symbols A-E, read-out: AKT3-1
[3] = Table 3, class symbols, read-out: Zap-1

| Compound | IC50 (Lck; [1]) [µM] | IC50 (c-Met) [µM] | IC50 (Kdr) [µM] | IC50 (Itk) [µM] | IC50 (AKT; [2]) [µM] | IC50 (Zap-70; [3]) [µM] | IC50 (IGFR-1) [µM] | IC50 (ErbB2) [µM] | IC50 (EGFR) [µM] | IC50 (Lck; Lck-1, Table 3, class symbols) [µM] | IC50 (AKT; AKT3-1, Table 2, class symbols A-E) [µM] | IC50 (Zap-70) [µM] |
| --- | --- | --- | --- | --- | --- | --- | --- | --- | --- | --- | --- | --- |
| COc1ccc(Nc2ncnc(N(C)c3ccc(C(=O)O)cc3)n2)cc1OC [Compound 860] | > 11.8 | 1.05 to 6.29 | 6.29 to 9.18 | > 11.8 | > 11.8 | > 11.8 | 6.29 to 9.18 | 9.18 to 11.8 | > 11.8 | – | – | – |
| COc1cc(Nc2ncnc(-c3cccnc3Nc3ccccc3)n2)cc(OC)c1OC [Compound 1092] | – | > 10.5 | – | > 10.5 | – | – | > 10.5 | > 10.5 | > 10.5 | > 10.5 | > 10.5 | > 10.5 |
| COC(=O)c1cccc(Nc2ncnc(-n3c(NCc4ccccc4)nc4ccccc43)n2)c1 [Compound 1067] | > 9.97 | > 9.97 | < 0.886 | > 9.97 | > 9.97 | > 9.97 | > 9.97 | 0.886 to 5.32 | 0.886 to 5.32 | – | – | – |
| CCOc1ccc(Nc2ncnc(N(C)c3cccc(Cl)c3)n2)cc1OCC [Compound 640] | 1 to 6 | 1 to 6 | 1 to 6 | > 11.3 | > 11.3 | > 11.3 | > 11.3 | < 1 | < 1 | – | – | – |
| COc1cc(Nc2ncnc(Nc3cccc(Cl)c3)n2)cc(OC)c1 [Compound 723] | 1.12 to 6.71 | 6.71 to 9.78 | 1.12 to 6.71 | 9.78 to 12.6 | 1.12 to 6.71 | 1.12 to 6.71 | < 1.12 | < 1.12 | < 1.12 | – | – | – |
| COc1ccc(Nc2ncnc(N(C)C3CCN(C)CC3)n2)cc1OC [Compound 861] | > 12.6 | > 12.6 | > 12.6 | > 12.6 | > 12.6 | > 12.6 | > 12.6 | 6.7 to 9.76 | > 12.6 | – | – | – |
| COc1cc(Nc2ncnc(Nc3cc(-c4ccc(C(N)=O)cc4)n[nH]3)n2)cc(OC)c1OC [Compound 642] | < 0.865 | < 0.865 | 0.865 to 5.19 | 0.865 to 5.19 | > 9.73 | > 9.73 | < 0.865 | 0.865 to 5.19 | 0.865 to 5.19 | – | – | – |
| COC(=O)c1cccc(Nc2ncnc(-n3c(NCc4ccc(OC)cc4)nc4ccccc43)n2)c1 [Compound 1068] | > 9.35 | > 9.35 | < 0.831 | > 9.35 | > 9.35 | > 9.35 | > 9.35 | 4.98 to 7.27 | > 9.35 | – | – | – |
| COc1ccc(Nc2ncnc(N(C)c3ccccc3Cl)n2)cc1OC [Compound 865] | 1.08 to 6.45 | 1.08 to 6.45 | 6.45 to 9.41 | > 12.1 | > 12.1 | > 12.1 | > 12.1 | 1.08 to 6.45 | < 1.08 | – | – | – |
| COc1ccc(Nc2ncnc(NCc3ncc(C(F)(F)F)cc3Cl)n2)cc1OC [Compound 858] | > 10.2 | > 10.2 | > 10.2 | > 10.2 | > 10.2 | > 10.2 | > 10.2 | > 10.2 | 5.44 to 7.94 | – | – | – |
| COC(=O)c1ccc(N(C)c2ncnc(Nc3ccc(OC)c(OC)c3)n2)cc1 [Compound 864] | > 11.4 | < 1.01 | 1.01 to 6.07 | > 11.4 | > 11.4 | > 11.4 | > 11.4 | > 11.4 | > 11.4 | – | – | – |
| CC(C)Nc1ncccc1-c1ncnc(Nc2ccc(N3CCOCC3)cc2)n1 [Compound 1112] | 1.02 to 6.13 | 1.02 to 6.13 | < 1.02 | 8.94 to 11.5 | > 11.5 | > 11.5 | > 11.5 | 1.02 to 6.13 | 1.02 to 6.13 | – | – | – |
| OCc1cccc(Nc2ncnc(-c3cccnc3Nc3ccccc3)n2)c1 [Compound 1115] | 1.08 to 6.48 | 1.08 to 6.48 | < 1.08 | > 12.1 | > 12.1 | > 12.1 | > 12.1 | – | 1.08 to 6.48 | – | – | – |
| Cc1ccc2c(c1)CCCN2c1ncnc(NCc2ccc(C(=O)O)cc2)n1 [Compound 853] | > 12 | > 12 | > 12 | > 12 | > 12 | > 12 | > 12 | – | > 12 | – | – | – |
| CC(C)Nc1ncccc1-c1ncnc(Nc2cccc(CO)c2)n1 [Compound 1114] | 1.19 to 7.13 | 10.4 to 13.4 | 1.19 to 7.13 | 10.4 to 13.4 | > 13.4 | 10.4 to 13.4 | > 13.4 | – | 10.4 to 13.4 | – | – | – |
| Cc1ccc2c(c1)CCCN2c1ncnc(Nc2c(C)ccc3ccccc23)n1 [Compound 854] | > 11.8 | > 11.8 | > 11.8 | > 11.8 | > 11.8 | > 11.8 | > 11.8 | – | 1.05 to 6.29 | – | – | – |
